Reference: US20090326037A1 (priority 2005, published 2009)
Where “and” joins values, the source holds several entries; their conditions need not be identical. Equal entries are not always repeated.

Test system: influenza A/Singapore/1/57 virus
Test: microbe, parasite or virus in culture
Assay type: cell-based
[1] = Influenza A virus, MDCK, read-out: percent of inhibition of viral reproduction

1-methyl-2-(4-methylphenylsulfomethyl-3-carbethoxy-4-dimethylaminomethyl-5-oxy-6-bromindol
Percent of inhibition of OD 490 (A or B 0.3 μg/ml + Zanamivir 0.3 μg, added 2 hours after infection): 10% | Percent of inhibition of OD 490 (A or B 0.3 μg/ml + Zanamivir 1 μg, added 2 hours after infection): 15% | Percent of inhibition of OD 490 (A or B 0.3 μg/ml + Zanamivir 3.3 μg, added 2 hours after infection): 21% | Percent of inhibition of OD 490 (A or B 0.3 μg/ml + Zanamivir 10 μg, added 2 hours after infection): 30% | Percent of inhibition of OD 490 (A or B 0.3 μg/ml + Zanamivir 33 μg, added 2 hours after infection): 40% | Percent of inhibition of OD 490 (A or B 0.3 μg/ml alone (Zanamivir 0), added 2 hours after infection): no | Percent of inhibition of OD 490 (A or B 1 μg/ml + Zanamivir 0.3 μg, added 2 hours after infection): 21% | Percent of inhibition of OD 490 (A or B 1 μg/ml + Zanamivir 1 μg, added 2 hours after infection): 26% | Percent of inhibition of OD 490 (A or B 1 μg/ml + Zanamivir 3.3 μg, added 2 hours after infection): 30% | Percent of inhibition of OD 490 (A or B 1 μg/ml + Zanamivir 10 μg, added 2 hours after infection): 85% | Percent of inhibition of OD 490 (A or B 1 μg/ml + Zanamivir 33 μg, added 2 hours after infection): 83% | Percent of inhibition of OD 490 (A or B 1 μg/ml alone (Zanamivir 0), added 2 hours after infection): no | Percent of inhibition of OD 490 (A or B 3 μg/ml + Zanamivir 0.3 μg, added 2 hours after infection): 40% | Percent of inhibition of OD 490 (A or B 3 μg/ml + Zanamivir 1 μg, added 2 hours after infection): 45% | Percent of inhibition of OD 490 (A or B 3 μg/ml + Zanamivir 3.3 μg, added 2 hours after infection): 80% | Percent of inhibition of OD 490 (A or B 3 μg/ml + Zanamivir 10 μg, added 2 hours after infection): 90% | Percent of inhibition of OD 490 (A or B 3 μg/ml + Zanamivir 33 μg, added 2 hours after infection): 87% | Percent of inhibition of OD 490 (A or B 3 μg/ml alone (Zanamivir 0), added 2 hours after infection): no | Percent of inhibition of OD 490 (A or B 5 μg/ml + Zanamivir 0.3 μg, added 2 hours after infection): 52% | Percent of inhibition of OD 490 (A or B 5 μg/ml + Zanamivir 1 μg, added 2 hours after infection): 80% | Percent of inhibition of OD 490 (A or B 5 μg/ml + Zanamivir 3.3 μg, added 2 hours after infection): 75% | Percent of inhibition of OD 490 (A or B 5 μg/ml + Zanamivir 10 μg, added 2 hours after infection): 96% | Percent of inhibition of OD 490 (A or B 5 μg/ml + Zanamivir 33 μg, added 2 hours after infection): 95% | Percent of inhibition of OD 490 (A or B 5 μg/ml alone (Zanamivir 0), added 2 hours after infection): no | Percent of inhibition of OD 490 (A or B 10 μg/ml + Zanamivir 0.3 μg, added 2 hours after infection): 50% | Percent of inhibition of OD 490 (A or B 10 μg/ml + Zanamivir 1 μg, added 2 hours after infection): 75% | Percent of inhibition of OD 490 (A or B 10 μg/ml + Zanamivir 3.3 μg, added 2 hours after infection): 90% | Percent of inhibition of OD 490 (A or B 10 μg/ml + Zanamivir 10 μg, added 2 hours after infection): 100, 100% | Percent of inhibition of OD 490 (A or B 10 μg/ml + Zanamivir 33 μg, added 2 hours after infection): 100, 100% | Percent of inhibition of OD 490 (A or B 10 μg/ml alone (Zanamivir 0), added 2 hours after infection): 10%

1-methyl-2-(4-oxyethyl-phenylsulfomethyl)-3-carbethoxy-4-dimethylaminomethyl-5-oxy-6-bromindol
Percent of inhibition of OD 490 (A or C 0.3 μg/ml + Oseltamivir 0.4 μg, added 2 hours after infection): 15% | Percent of inhibition of OD 490 (A or C 0.3 μg/ml + Oseltamivir 1.2 μg, added 2 hours after infection): 16% | Percent of inhibition of OD 490 (A or C 0.3 μg/ml + Oseltamivir 4.1 μg, added 2 hours after infection): 18% | Percent of inhibition of OD 490 (A or C 0.3 μg/ml + Oseltamivir 12.3 μg, added 2 hours after infection): 35% | Percent of inhibition of OD 490 (A or C 0.3 μg/ml + Oseltamivir 41 μg, added 2 hours after infection): 40% | Percent of inhibition of OD 490 (A or C 0.3 μg/ml alone (Oseltamivir 0), added 2 hours after infection): no | Percent of inhibition of OD 490 (A or C 1 μg/ml + Oseltamivir 0.4 μg, added 2 hours after infection): 30% | Percent of inhibition of OD 490 (A or C 1 μg/ml + Oseltamivir 1.2 μg, added 2 hours after infection): 31% | Percent of inhibition of OD 490 (A or C 1 μg/ml + Oseltamivir 4.1 μg, added 2 hours after infection): 41% | Percent of inhibition of OD 490 (A or C 1 μg/ml + Oseltamivir 12.3 μg, added 2 hours after infection): 88% | Percent of inhibition of OD 490 (A or C 1 μg/ml + Oseltamivir 41 μg, added 2 hours after infection): 90% | Percent of inhibition of OD 490 (A or C 1 μg/ml alone (Oseltamivir 0), added 2 hours after infection): no | Percent of inhibition of OD 490 (A or C 3 μg/ml + Oseltamivir 0.4 μg, added 2 hours after infection): 35% | Percent of inhibition of OD 490 (A or C 3 μg/ml + Oseltamivir 1.2 μg, added 2 hours after infection): 37% | Percent of inhibition of OD 490 (A or C 3 μg/ml + Oseltamivir 4.1 μg, added 2 hours after infection): 60% | Percent of inhibition of OD 490 (A or C 3 μg/ml + Oseltamivir 12.3 μg, added 2 hours after infection): 91% | Percent of inhibition of OD 490 (A or C 3 μg/ml + Oseltamivir 41 μg, added 2 hours after infection): 100, 100% | Percent of inhibition of OD 490 (A or C 3 μg/ml alone (Oseltamivir 0), added 2 hours after infection): no | Percent of inhibition of OD 490 (A or C 5 μg/ml + Oseltamivir 0.4 μg, added 2 hours after infection): 50% | Percent of inhibition of OD 490 (A or C 5 μg/ml + Oseltamivir 1.2 μg, added 2 hours after infection): 40% | Percent of inhibition of OD 490 (A or C 5 μg/ml + Oseltamivir 4.1 μg, added 2 hours after infection): 96% | Percent of inhibition of OD 490 (A or C 5 μg/ml + Oseltamivir 12.3 μg, added 2 hours after infection): 96% | Percent of inhibition of OD 490 (A or C 5 μg/ml + Oseltamivir 41 μg, added 2 hours after infection): 100, 100% | Percent of inhibition of OD 490 (A or C 5 μg/ml alone (Oseltamivir 0), added 2 hours after infection): no | Percent of inhibition of OD 490 (A or C 10 μg/ml + Oseltamivir 0.4 μg, added 2 hours after infection): 46% | Percent of inhibition of OD 490 (A or C 10 μg/ml + Oseltamivir 1.2 μg, added 2 hours after infection): 65% | Percent of inhibition of OD 490 (A or C 10 μg/ml + Oseltamivir 4.1 μg, added 2 hours after infection): 95% | Percent of inhibition of OD 490 (A or C 10 μg/ml + Oseltamivir 12.3 μg, added 2 hours after infection): 95% | Percent of inhibition of OD 490 (A or C 10 μg/ml + Oseltamivir 41 μg, added 2 hours after infection): 98% | Percent of inhibition of OD 490 (A or C 10 μg/ml alone (Oseltamivir 0), added 2 hours after infection): 10%

1-methyl-2-(n-methyl-phenylsulfomethyl)-3-carbethoxy-4-dimethylaminomethyl-5-oxy-6-bromindol
Percent of inhibition of OD 490 (A or D 1 μg/ml + Amantadin 0.3 μg/ml, added 30 min prior to infection): 17% | Percent of inhibition of OD 490 (A or D 1 μg/ml + Amantadin 1 μg/ml, added 30 min prior to infection): 18% | Percent of inhibition of OD 490 (A or D 1 μg/ml + Amantadin 5 μg/ml, added 30 min prior to infection): 29% | Percent of inhibition of OD 490 (A or D 1 μg/ml + Amantadin 10 μg/ml, added 30 min prior to infection): 45% | Percent of inhibition of OD 490 (A or D 1 μg/ml + Remantadin 0.3 μg/ml, added 30 min prior to infection): 18% | Percent of inhibition of OD 490 (A or D 1 μg/ml + Remantadin 1 μg/ml, added 30 min prior to infection): 20% | Percent of inhibition of OD 490 (A or D 1 μg/ml + Remantadin 5 μg/ml, added 30 min prior to infection): 36% | Percent of inhibition of OD 490 (A or D 1 μg/ml + Remantadin 10 μg/ml, added 30 min prior to infection): 42% | Percent of inhibition of OD 490 (A or D 1 μg/ml alone (Amantadin 0), added 30 min prior to infection): 15% | Percent of inhibition of OD 490 (A or D 1 μg/ml alone (Remantadin 0), added 30 min prior to infection): 12% | Percent of inhibition of OD 490 (A or D 5 μg/ml + Amantadin 0.3 μg/ml, added 30 min prior to infection): 38% | Percent of inhibition of OD 490 (A or D 5 μg/ml + Amantadin 1 μg/ml, added 30 min prior to infection): 41% | Percent of inhibition of OD 490 (A or D 5 μg/ml + Amantadin 5 μg/ml, added 30 min prior to infection): 53% | Percent of inhibition of OD 490 (A or D 5 μg/ml + Amantadin 10 μg/ml, added 30 min prior to infection): 70% | Percent of inhibition of OD 490 (A or D 5 μg/ml + Remantadin 0.3 μg/ml, added 30 min prior to infection): 48% | Percent of inhibition of OD 490 (A or D 5 μg/ml + Remantadin 1 μg/ml, added 30 min prior to infection): 44% | Percent of inhibition of OD 490 (A or D 5 μg/ml + Remantadin 5 μg/ml, added 30 min prior to infection): 50% | Percent of inhibition of OD 490 (A or D 5 μg/ml + Remantadin 10 μg/ml, added 30 min prior to infection): 73% | Percent of inhibition of OD 490 (A or D 5 μg/ml alone (Amantadin 0), added 30 min prior to infection): 24% | Percent of inhibition of OD 490 (A or D 5 μg/ml alone (Remantadin 0), added 30 min prior to infection): 20% | Percent of inhibition of OD 490 (A or D 10 μg/ml + Amantadin 0.3 μg/ml, added 30 min prior to infection): 57% | Percent of inhibition of OD 490 (A or D 10 μg/ml + Amantadin 1 μg/ml, added 30 min prior to infection): 70% | Percent of inhibition of OD 490 (A or D 10 μg/ml + Amantadin 5 μg/ml, added 30 min prior to infection): 75% | Percent of inhibition of OD 490 (A or D 10 μg/ml + Amantadin 10 μg/ml, added 30 min prior to infection): 80% | Percent of inhibition of OD 490 (A or D 10 μg/ml + Remantadin 0.3 μg/ml, added 30 min prior to infection): 69% | Percent of inhibition of OD 490 (A or D 10 μg/ml + Remantadin 1 μg/ml, added 30 min prior to infection): 69% | Percent of inhibition of OD 490 (A or D 10 μg/ml + Remantadin 5 μg/ml, added 30 min prior to infection): 70% | Percent of inhibition of OD 490 (A or D 10 μg/ml + Remantadin 10 μg/ml, added 30 min prior to infection): 75% | Percent of inhibition of OD 490 (A or D 10 μg/ml alone (Amantadin 0), added 30 min prior to infection): 40% | Percent of inhibition of OD 490 (A or D 10 μg/ml alone (Remantadin 0), added 30 min prior to infection): 54%

NC12CC3CC(CC(C3)C1)C2 [Amantadin]
Percent of inhibition of OD 490 (Amantadin 5 μg/ml alone (A or D 0 μg/ml), two values: A series, D series, added 30 min prior to infection): 50% and 30% | Percent of inhibition of OD 490 (Amantadin 10 μg/ml alone (A or D 0 μg/ml), two values: A series, D series, added 30 min prior to infection): 56% and 38%

CC(N)C12CC3CC(CC(C3)C1)C2 (centres unmarked) [Remantadin]
Percent of inhibition of OD 490 (Remantadin 5 μg/ml alone (A or D 0 μg/ml), two values: A series, D series, added 30 min prior to infection): 56% and 41% | Percent of inhibition of OD 490 (Remantadin 10 μg/ml alone (A or D 0 μg/ml), two values: A series, D series, added 30 min prior to infection): 59% and 40%

NC(=O)c1ncn([C@@H]2O[C@H](CO)[C@@H](O)[C@H]2O)n1 [Ribavirin]
inhibition at 1 µg/mL [1]: 5% | inhibition at 3 µg/mL [1]: 25% | inhibition at 10 µg/mL [1]: 30% | inhibition at 15 µg/mL [1]: 38%
